How the values were obtained:
[1] = clinical; settings: human, in vivo
Method: Each subject was dosed 4 times over 1 week with dosing occurring every other day. Doses of AV002 were administered at 0.5, 1.0, and 2.0 μg intranasally.
On Days 1, 3 and 5, subjects were dosed intranasally with escalating doses of AV002 nasal spray. On Day 7, 6 subjects were given a single SC bolus injection of desmopressin. Pharmacodynamic and pharmacokinetic metrics were evaluated at each dose level.
Plasma samples were analyzed using a validated radioimmunoassay assay (Celerion Switzerland AG) for desmopressin with a lower limit of quantification (LLOQ) of 2.5 pg/mL and upper limit of quantitation of 160 pg/mL. A 1.25 pg/mL calibration standard was included in the assay runs and concentrations between 1.25 and 2.5 pg/mL were reported out even though they were below the nominal LLOQ.
Pharmacokinetic variables were generally analyzed using model-independent methods. A single compartment model with first order absorption was used to qualitatively assess the impact of probable pharmacokinetic behavior of desmopressin when concentrations declined below the assay lower limit of quantification.
Pharmacokinetic calculations were performed using built in functions in the Excel 2003 component of Microsoft Office 2003 (Microsoft, Redmond, WA). The correctness of the calculation techniques was confirmed by comparison to output from WinNonlin 4.0.1 (Pharsight Corporation, Sunnyvale, CA). Summary statistics, graphs and figures were generated using built in functions and features of Excel 2003.
Pharmacokinetic samples were collected at pre-dose and 0.083, 0.167, 0.25, 0.50, 0.75, 1.05, 1.50, 2.05, 3.05, 4.05, and 6.05 h post dose each dosing day.

[2] = in vivo, cited from earlier work

NC(=O)CC[C@@H]1NC(=O)[C@H](Cc2ccccc2)NC(=O)[C@H](Cc2ccc(O)cc2)NC(=O)CCSSC[C@@H](C(=O)N2CCC[C@H]2C(=O)N[C@H](CCCN=C(N)N)C(=O)NCC(N)=O)NC(=O)[C@H](CC(N)=O)NC1=O [Desmopressin, desmopressin]
half-life [1]: 90 min
mean Tmax ([1]; sc): 53 min
CL/F ([1]; sc, 0.12 ug): 227 mL/min
AUC(0-inf) ([1]; sc, 0.12 ug, SD): 0.0102 ± 0.0049 ng·h/mL
Tmax ([1]; sc, 0.12 ug, SD): 53 ± 20.9 min
intranasal bioavailability ([2]; human): 3.4%
relative bioavailability of intranasal administration, of SC injection [2]: approximately 2%

From article PMC6488552, “Pharmacokinetic and Pharmacodynamic Properties of a Micro-Dose Nasal Spray Formulation of Desmopressin (AV002) in Healthy Water-Loaded Subjects” (Pharmaceutical Research, 2019)
